Laboratory results taken from patent publication US20230040386A1, “URSODEOXYCHOLIC ACID-CONTAINING AGENT FOR TREATING OR PREVENTING PRESBYOPIA” (priority 2018, published 2023).

What was measured:
Assay type in all cases: in vivo, C57BL/6J mice
[1] = system: lens; experiment: Pharmacological Test 7: lens elasticity, tauroursodeoxycholic acid once-daily for 7 days
Procedure: (§1) A vehicle comprising 0.1% (w/v) of ethyl pyruvate, 0.269% (w/v) of sodium dihydrogenphosphate monohydrate (NaH2PO4H2O), 0.433% (w/v) of disodium hydrogenphosphate (Na2HPO4), 0.2% (w/v) of hydroxypropyl methylcellulose, 0.5% (w/v) of NaCl was prepared. Tauroursodeoxycholic acid was dissolved with the addition of the vehicle to prepare a 1.0% (w/v) solution. The total amount of each sample to be used in one day was prepared before use. 1) Each test sample (2.5 μL/eye) was instilled into both eyes of 7-month-old C57BL/6J mice with a Pipetman once per day (QD; around 13:30) for 7 days. 2) Twenty-four hours after the final instillation, the mice were euthanized by carbon dioxide inhalation, and then the eyeballs were extracted and rinsed with Hank's balanced salt solution (HBSS). 3) The sclera near the optic nerve was cut with a razor, the lens was removed through the incision, and the removed lens was immersed in HBSS. 4) The lens was placed on a glass slide, and an all-in-one fluorescence microscope BZ-9000 (Keyence) was used to capture an image of the lens (Image a). […] 6) A change in the lens diameter was calculated from Equation 1 wherein the lens diameter of Image a is subtracted from the lens diameter of Image b, as described below. Then, the lens elasticity improvement of each sample group compared with the vehicle control group was calculated from Equation 2 described below. […]

[2] = system: lens; experiment: Pharmacological Test 6: lens elasticity, ursodeoxycholic acid methyl ester once-daily for 7 days; conditions: for Lens elasticity improvement: QD, 7-month-old mice, vs vehicle control
Procedure: A vehicle comprising 0.1% (w/v) of ethyl pyruvate, 0.269% (w/v) of sodium dihydrogenphosphate monohydrate […], 0.433% (w/v) of disodium hydrogenphosphate (Na2HPO4), 0.2% (w/v) of hydroxypropyl methylcellulose, 0.5% (w/v) of NaCl was prepared. Ursodeoxycholic acid methyl ester was sonicated with the addition of the vehicle to prepare a 0.3% (w/v) suspension, a 1.0% (w/v) suspension and a 3.0% (w/v) suspension. The total amount of each sample to be used in one day was prepared before use. 1) Each test sample (2.5 μL/eye) was instilled into both eyes of 7-month-old C57BL/6J mice with a Pipetman once per day (QD; around 13:30) for 7 days. 2) Twenty-four hours after the final instillation, the mice were euthanized by carbon dioxide inhalation, and then the eyeballs were extracted and rinsed with Hank's balanced salt solution (HBSS). 3) The sclera near the optic nerve was cut with a razor, the lens was removed through the incision, and the removed lens was immersed in HBSS. 4) The lens was placed on a glass slide, and an all-in-one fluorescence microscope BZ-9000 (Keyence) was used to capture an image of the lens (Image a). 5) Next, one cover glass (Corning^(registered trade mark) 22×22 mm Square) was placed on the lens, and an image in which the thickness of the lens changed due to the weight was similarly captured (Image b). 6) A change in the lens diameter was calculated from Equation 1 wherein the lens diameter of Image a is subtracted from the lens diameter of Image b, as described below. Then, the lens elasticity improvement of each sample group compared with the vehicle control group was calculated from Equation 2 described below. Each mean of the vehicle control group and each ursodeoxycholic acid methyl ester sample group was based on 9 or 10 eyes. Change in lens diameter=Lens diameter in Image b of each test sample−Lens diameter in Image a of each test sample (Equation 1) Lens elasticity improvement of each sample group=Mean change in lens diameter of each Test sample group−Mean change in lens diameter of Vehicle control group (Equation 2)

[3] = system: lens; experiment: Pharmacological Test 2: lens elasticity after instillation of sodium ursodeoxycholate; conditions: for Lens elasticity improvement: 2.5 μL/eye, 3 times per day, 12 to 15 days, vs vehicle control
Procedure: A vehicle comprising 0.1% (w/v) of ethyl pyruvate, 0.269% (w/v) of sodium dihydrogenphosphate monohydrate (NaH2PO4H2O), 0.433% (w/v) of disodium hydrogenphosphate (Na2HPO4), 0.2% (w/v) of hydroxypropyl methylcellulose, 0.5% (w/v) of NaCl was prepared. Sodium ursodeoxycholate was sonicated with the addition of the vehicle to prepare a 1.5% (w/v) suspension. The resulting 1.5% (w/v) suspension was diluted with the vehicle to prepare a 0.5% (w/v) suspension. Further, the resulting 0.5% (w/v) suspension was diluted with the vehicle to prepare a 0.15% (w/v) suspension. The total amount of each sample to be used in one day was prepared before use. EV06 was sonicated with the addition of the vehicle to prepare a 1.5% (w/v) solution. The total amount of the sample to be used in one day was prepared before use. 1) Each test sample (2.5 μL/eye) was instilled into the right eye of 8-month-old C57BL/6J mice with a Pipetman 3 times per day (around 9:00, 13:00 and 17:00) for 12 to 15 days. 2) After the final instillation, the mice were euthanized by carbon dioxide inhalation, and then the eyeballs were extracted and rinsed with Hank's balanced salt solution (HBSS)). 3) The sclera near the optic nerve was cut with a razor, the lens was removed through the incision, and the removed lens was immersed in HBSS. 4) The lens was placed on a glass slide, and an all-in-one fluorescence microscope BZ-9000 (Keyence) was used to capture an image of the lens (Image a). 5) Next, one cover glass (Corning^(registered trade mark) 22×22 mm Square) was placed on the lens, and an image in which the thickness of the lens changed due to the weight was similarly captured (Image b). 6) A change in the lens diameter was calculated from Equation 1 wherein the lens diameter of Image a is subtracted from the lens diameter of Image b, as described below. Then, the lens elasticity improvement of each sample group compared with the vehicle control group was calculated from Equation 2 described below. The mean of the vehicle control group was based on 5 eyes, the mean of each sodium ursodeoxycholate sample group was based on 10 eyes, and the mean of the EV06 sample group was based on 10 eyes. Change in lens diameter Lens diameter in image b of each test sample−Lens diameter in Image a of each test sample (Equation 1) Lens elasticity improvement of each sample group=Mean change in lens diameter of each Test sample group−Mean change in lens diameter of Vehicle control group (Equation 2)

[4] = system: lens; experiment: Pharmacological Test 3: lens elasticity after instillation of ursodeoxycholic acid (free form)
Procedure: A vehicle comprising 0.1% (w/v) of ethyl pyruvate, 0.269% (w/v) of sodium dihydrogenphosphate monohydrate (NaH2PO4H2O), 0.433% (w/v) of disodium hydrogenphosphate (Na2HPO4), 0.2% (w/v) of hydroxypropyl methylcellulose, and 0.5% (w/v) of NaCl was prepared. Ursodeoxycholic acid was sonicated with the addition of the vehicle to prepare a 1.5% (w/v) suspension. The resulting 1.5% (w/v) suspension was diluted with the vehicle to prepare a 0.5% (w/v) suspension. Further, the resulting 0.5% (w/v) suspension was diluted with the vehicle to prepare a 0.15% (w/v) suspension. The total amount of each sample to be used in one day was prepared before use. EV06 was sonicated with the addition of the vehicle to prepare a 1.5% (w/v) solution. The total amount of the sample to be used in one day was prepared before use. 1) Each test sample (2.5 μL/eye) was instilled into the right eye of 8-month-old C57BL/6J mice with a Pipetman 3 times per day (around 9:00, 13:00 and 17:00) for 12 to 15 days. 2) After the final instillation, the mice were euthanized by carbon dioxide inhalation, and then the eyeballs were extracted and rinsed with Hank's balanced salt solution (HBSS). 3) The sclera near the optic nerve was cut with a razor, the lens was removed through the incision, and the removed lens was immersed in HBSS. 4) The lens was placed on a glass slide, and an all-in-one fluorescence microscope BZ-9000 (Keyence) was used to capture an image of the lens (Image a). 5) Next, one cover glass (Corning^(registered trade mark) 22×22 mm Square) was placed on the lens, and an image in which the thickness of the lens changed due to the weight was similarly captured (image b). 6) A change in the lens diameter was calculated from Equation 1 wherein the lens diameter of Image a is subtracted from the lens diameter of Image b, as described below. Then, the lens elasticity improvement of each sample group compared with the vehicle control group was calculated from Equation 2 described below. The mean of the vehicle control group was based on 5 eyes, the mean of each ursodeoxycholic acid sample group was based on 10 eyes, and the mean of the EV06 sample group was based on 10 eyes. Change in lens diameter=Lens diameter in Image b of each test sample−Lens diameter in Image a of each test sample (Equation 1) Lens elasticity improvement of each sample group=Mean change in lens diameter of each Test sample group−Mean change in lens diameter of Vehicle control group (Equation 2)

[5] = system: lens; experiment: Pharmacological Test 8: lens elasticity, glycoursodeoxycholic acid once-daily for 7 days
Procedure: as §1, with “Glycoursodeoxycholic” for “Tauroursodeoxycholic”, “sonicated” for “dissolved”, “suspension.” for “solution.”, “8-month-old” for “7-month-old”, “(image” for “(Image”

[6] = 1.5% sample group vs EV06 at the same concentration

For `C[C@H](CCC(=O)NCCS(=O)(=O)O)[C@H]1CC[C@H]2[C@@H]3[C@@H](O)C[C@@H]4C[C@H](O)CC[C@]4(C)[C@H]3CC[C@]12C` [tauroursodeoxycholic acid, 3α,7β-Dihydroxy-5β-cholan-24-oic Acid N-(2-Sulfoethyl)amide], the Lens elasticity improvement ([1]; 1% (w/v) solution, QD, 7-month-old mice, vs vehicle control) was 29.7 μm and the “Lens elasticity improvement, in words” value ([1]; 1% sample instilled once-daily) was “potent lens elasticity improvement”.
`COC(=O)CC[C@@H](C)[C@H]1CC[C@H]2[C@@H]3[C@@H](O)C[C@@H]4C[C@H](O)CC[C@]4(C)[C@H]3CC[C@]12C` [ursodeoxycholic acid methyl ester] was tested, and the Lens elasticity improvement ([2]; 0.3% (w/v) sample) was 13.2 μm, the Lens elasticity improvement ([2]; 1% (w/v) sample) was 33.0 μm and the “Lens elasticity improvement, in words” value ([2]; 1% and 3% samples instilled once-daily) was “potent lens elasticity improvement”. For the same compound, the Lens elasticity improvement ([2]; 3% (w/v) sample) was 46.5 μm.
For `C[C@H](CCC(=O)[O-])[C@H]1CC[C@H]2[C@@H]3[C@@H](O)C[C@@H]4C[C@H](O)CC[C@]4(C)[C@H]3CC[C@]12C.[Na+]` [sodium ursodeoxycholate], the Lens elasticity improvement ([3]; 0.15% (w/v) sample) was 26.5 μm, the Lens elasticity improvement ([3]; 0.5% (w/v) sample) was 34.8 μm and the Lens elasticity improvement ([3]; 1.5% (w/v) sample) was 44.7 μm. For the same compound, the “Lens elasticity improving effect compared with EV06, in words” value [3, 6] was “stronger than that of EV06”, the “Lens elasticity improving effect, in words” value ([3]; all of the 0.15%, 0.5% and 1.5% sample groups) was “potent lens elasticity improving effect” and the “Lens elasticity improving effect compared with EV06, in words” value [4, 6] was “stronger than that of EV06”. For the same compound, the “Lens elasticity improving effect, in words” value ([4]; all of the 0.15%, 0.5% and 1.5% sample groups (Table 3)) was “potent lens elasticity improving effect”.
With `C[C@H](CCC(=O)NCC(=O)O)[C@H]1CC[C@H]2[C@@H]3[C@@H](O)C[C@@H]4C[C@H](O)CC[C@]4(C)[C@H]3CC[C@]12C` [glycoursodeoxycholic acid, N-(3α,7β-Dihydroxy-5β-cholan-24-oyl)glycine] the Lens elasticity improvement ([5]; 1% (w/v) suspension, QD, 8-month-old mice, vs vehicle control) was 20.1 μm and the “Lens elasticity improvement, in words” value ([5]; 1% sample instilled once-daily) was “potent lens elasticity improvement”.
